Converted amounts (≈) assume the structure as drawn. “And” between values parts separate entries of the source, which are not always exact repeats. Equal entries are not always repeated. The source made the active and inactive calls. The calls are words filed in the database; no cut-off is given here.
Tests used:
[1] = Binding affinity to methicillin-resistant Staphylococcus aureus ProRS expressed in Escherichia coli assessed as dissociation constant in presence of 0.1 nM ATP by microscale thermophoresis assay
[2] = (§1) Inhibition of methicillin-resistant Staphylococcus aureus ProRS expressed in Escherichia coli assessed as generation of inorganic monophosphate by pre-transfer editing-based experiment
[3] = system: Staphylococcus aureus; test: as §1; conditions: dose 0-100 µM, DDE = dose-dependent effect
[4] = Binding affinity to methicillin-resistant Staphylococcus aureus ProRS expressed in Escherichia coli assessed as dissociation constant in presence of 2 nM ATP by microscale thermophoresis assay
[5] = Binding affinity to methicillin-resistant Staphylococcus aureus ProRS expressed in Escherichia coli assessed as dissociation constant in presence of 1 nM ATP by microscale thermophoresis assay
[6] = system: Salmonella typhi; test: Antibacterial activity against Salmonella typhi CMCC50094 assessed as prevention of visible growth by broth microdilution method; assay type: functional, Salmonella enterica subsp. enterica serovar Typhi; conditions: Salmonella enterica
[7] = system: Staphylococcus aureus; test: Antibacterial activity against Staphylococcus aureus ATCC29213 assessed as prevention of visible growth by broth microdilution method; assay type: functional
[8] = system: Escherichia coli; test: Antibacterial activity against Escherichia coli ATCC25922 assessed as prevention of visible growth by broth microdilution method; assay type: functional
[9] = species on record: Homo sapiens; test: Inhibition of human ProRS expressed in Escherichia coli assessed as generation of inorganic monophosphate by pre-transfer editing-based experiment; conditions: dose 0-100 µM, DDE = dose-dependent effect
[10] = system: Staphylococcus aureus; test: Inhibition of methicillin-resistant Staphylococcus aureus ProRS expressed in Escherichia coli assessed as change in melting temperature in presence of AMPPNP at 0.5 mM by fluorescence-based thermal shift assay
[11] = system: Saccharomyces cerevisiae; test: Inhibition of Saccharomyces cerevisiae ProRS expressed in Escherichia coli assessed as generation of inorganic monophosphate at 0 to 100 uM by pre-transfer editing-based experiment; conditions: dose 0-100 µM, DDE = dose-dependent effect
[12] = target: T1, Proline--tRNA ligase (Escherichia coli) (UniProt P16659); test: Inhibition of Escherichia coil ProRS expressed in Escherichia coli assessed as change in melting temperature in presence of AMPPNP at 0.5 mM by fluorescence-based thermal shift assay
T1 sequence (whole entry): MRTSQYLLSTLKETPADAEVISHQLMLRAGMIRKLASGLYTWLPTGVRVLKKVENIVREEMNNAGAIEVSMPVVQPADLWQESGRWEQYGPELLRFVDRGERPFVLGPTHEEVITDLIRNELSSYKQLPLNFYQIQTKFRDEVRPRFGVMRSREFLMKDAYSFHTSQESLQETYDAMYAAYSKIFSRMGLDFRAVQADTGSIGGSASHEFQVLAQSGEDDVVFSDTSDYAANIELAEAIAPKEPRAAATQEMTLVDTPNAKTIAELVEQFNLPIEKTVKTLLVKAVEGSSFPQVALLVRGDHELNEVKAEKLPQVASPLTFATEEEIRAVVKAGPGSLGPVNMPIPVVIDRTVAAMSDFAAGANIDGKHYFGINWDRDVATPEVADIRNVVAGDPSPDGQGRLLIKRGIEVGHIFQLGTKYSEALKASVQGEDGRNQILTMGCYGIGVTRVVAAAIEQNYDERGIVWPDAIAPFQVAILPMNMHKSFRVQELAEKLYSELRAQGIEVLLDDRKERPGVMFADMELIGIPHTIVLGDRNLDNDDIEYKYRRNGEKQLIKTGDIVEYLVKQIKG

[13] = target: T2, Proline--tRNA ligase (Salmonella typhi) (UniProt Q8XEY9); test: Inhibition of Salmonella typhi ProRS expressed in Escherichia coli assessed as generation of inorganic monophosphate by pre-transfer editing-based experiment; conditions: Salmonella enterica subsp. enterica serovar Typhi; dose 0-100 µM; DDE = dose-dependent effect
T2 sequence (whole entry): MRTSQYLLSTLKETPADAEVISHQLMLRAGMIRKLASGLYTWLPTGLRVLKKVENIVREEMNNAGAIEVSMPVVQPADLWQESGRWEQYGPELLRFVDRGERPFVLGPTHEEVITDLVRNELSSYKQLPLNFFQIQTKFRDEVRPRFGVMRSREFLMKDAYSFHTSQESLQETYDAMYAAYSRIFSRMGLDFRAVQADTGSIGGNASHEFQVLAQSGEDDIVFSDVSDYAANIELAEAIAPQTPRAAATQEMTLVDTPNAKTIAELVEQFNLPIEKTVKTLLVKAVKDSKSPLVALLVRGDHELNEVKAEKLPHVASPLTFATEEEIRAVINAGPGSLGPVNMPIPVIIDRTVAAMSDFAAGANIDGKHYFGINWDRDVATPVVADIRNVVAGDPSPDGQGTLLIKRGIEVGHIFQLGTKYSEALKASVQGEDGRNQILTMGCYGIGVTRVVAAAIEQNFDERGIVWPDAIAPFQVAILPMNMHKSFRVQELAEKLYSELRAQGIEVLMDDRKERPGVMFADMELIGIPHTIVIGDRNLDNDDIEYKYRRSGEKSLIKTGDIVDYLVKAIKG

[14] = Cytotoxicity against human HepG2 cells; assay type: toxicity, cell-based
[15] = Binding affinity to methicillin-resistant Staphylococcus aureus ProRS expressed in Escherichia coli assessed as dissociation constant in presence of 0.5 nM ATP by microscale thermophoresis assay
[16] = Binding affinity to methicillin-resistant Staphylococcus aureus ProRS expressed in Escherichia coli assessed as dissociation constant by microscale thermophoresis assay
[17] = system: Staphylococcus aureus; test: Antibacterial activity against methicillin-resistant Staphylococcus aureus R3708 assessed as prevention of visible growth by broth microdilution method; assay type: functional
[18] = Binding affinity to methicillin-resistant Staphylococcus aureus ProRS expressed in Escherichia coli assessed as dissociation constant in presence of 0.2 nM ATP by microscale thermophoresis assay
[19] = system: Staphylococcus aureus; test: Antibacterial activity against methicillin-resistant Staphylococcus aureus 252 assessed as prevention of visible growth by broth microdilution method; assay type: functional
[20] = species on record: Homo sapiens; test: Inhibition of human ProRS expressed in Escherichia coli assessed as change in melting temperature in presence of AMPPNP at 0.5 mM by fluorescence-based thermal shift assay
[21] = Binding affinity to methicillin-resistant Staphylococcus aureus ProRS expressed in Escherichia coli assessed as dissociation constant in presence of 0.05 nM ATP by microscale thermophoresis assay
[22] = target: T1, Proline--tRNA ligase (Escherichia coli); test: Inhibition of Escherichia coli ProRS expressed in Escherichia coli assessed as generation of inorganic monophosphate by pre-transfer editing-based experiment; conditions: dose 0-100 µM, DDE = dose-dependent effect
[23] = target: T2, Proline--tRNA ligase (Salmonella typhi); test: Inhibition of Salmonella typhi ProRS expressed in Escherichia coli assessed as change in melting temperature in presence of AMPPNP at 0.5 mM by fluorescence-based thermal shift assay; conditions: Salmonella enterica subsp. enterica serovar Typhi
[24] = system: Staphylococcus aureus; test: Antibacterial activity against Staphylococcus aureus ATCC25923 assessed as prevention of visible growth by broth microdilution method; assay type: functional
[25] = system: Shigella flexneri; test: Antibacterial activity against Shigella flexneri CMCC51572 assessed as prevention of visible growth by broth microdilution method; assay type: functional
[26] = system: Staphylococcus aureus; test: Bacteriostatic effect against methicillin-resistant Staphylococcus aureus 252 assessed as decrease in CFU/ml at MIC measured for 24 hrs by CLSI based time-kill kinetic assays; assay type: functional
[27] = Selectivity index, ratio of CC50 for human HepG2 cells to MIC for methicillin-resistant Staphylococcus aureus 252; assay type: toxicity; conditions: read-out: Selectivity Index
[28] = system: Escherichia coli; test: Antibacterial activity against drug-resistance induced Escherichia coli ATCC25922 assessed as assessed as reversal of drug resistance measured after 10 days in compound free media by broth microdilution method; assay type: functional; conditions: ATCC25922, 240 h, time 10 day
[29] = system: Escherichia coli; test: Bacteriostatic effect against Escherichia coli ATCC25922 assessed as decrease in CFU/ml at 4 times of MIC measured for 24 hrs by CLSI based time-kill kinetic assays; assay type: functional
[30] = system: Escherichia coli; test: Resistance development in Escherichia coli ATCC25922 assessed as fold increase in resistance after 15 days serial passage upto 256 ug/ml; assay type: functional; conditions: dose <= 256 µg/ml; time 15 day
[31] = system: Staphylococcus aureus; test: Ratio of MBC99.9 for methicillin-resistant Staphylococcus aureus 252 to MIC for methicillin-resistant Staphylococcus aureus 252; assay type: functional
[32] = system: Staphylococcus aureus; test: Bacteriostatic effect against methicillin-resistant Staphylococcus aureus 252 assessed as decrease in CFU/ml at 4 times of MIC measured for 24 hrs by CLSI based time-kill kinetic assays; assay type: functional
[33] = system: Staphylococcus aureus; test: Bacteriostatic effect against methicillin-resistant Staphylococcus aureus 252 assessed as decrease in CFU/ml at 1 to 4 times of MIC measured for 0 to 12 hrs by CLSI based time-kill kinetic assays; assay type: functional, organism-based; conditions: time 0-12 hrs
[34] = system: Escherichia coli; test: Bacteriostatic effect against Escherichia coli ATCC25922 assessed as decrease in CFU/ml at 1 to 4 times of MIC measured for 0 to 12 hrs by CLSI based time-kill kinetic assays; assay type: functional, organism-based; conditions: time 0-12 hrs
[35] = system: Staphylococcus aureus; test: Antibacterial activity against drug-resistance induced methicillin-resistant Staphylococcus aureus 252 assessed as assessed as reversal of drug resistance measured after 10 days in compound free media by broth microdilution method; assay type: functional; conditions: Staphylococcus aureus, 252, 240 h; time 10 day
[36] = system: Escherichia coli; test: Ratio of MBC99.9 for Escherichia coli ATCC25922 to MIC for Escherichia coli ATCC25922; assay type: functional
[37] = system: Staphylococcus aureus; test: Resistance development in methicillin-resistant Staphylococcus aureus 252 assessed as fold increase in resistance after 15 days serial passage upto 256 ug/ml; assay type: functional; conditions: dose <= 256 µg/ml; time 15 day
[38] = system: Staphylococcus aureus; test: Bactericidal activity against methicillin-resistant Staphylococcus aureus 252 assessed as bacterial killing measured after 24 hrs incubation by CLSI method; assay type: functional; conditions: read-out: MBC99.9

Row | SMILES | Kd [1] | IC50 [2] | Kd [4] | Kd [5] | MIC [6] | MIC [7] | MIC [8] | ΔTm [10] | CC50 [14] | Kd [15] | Kd [16] | MIC [17] | Kd [18] | MIC [19] | ΔTm [20] | Kd [21] | MIC [24] | MIC [25] | also measured
1 | O=C(CC1NCCCC1O)Cn1cnc2cc(Br)c(Cl)cc2c1=O (stereo not drawn) [HALOFUGINONE] | 628 µM | 0.66 µM | 0.216 µM | 0.423 µM | > 64 µg/mL | > 64 µg/mL | 64 µg/mL (≈ 154 µM) | 6.9 °C and 6 °C | 4.32 µM | 5.51 µM | 1020 µM | 64 µg/mL (≈ 154 µM) | 11.6 µM | 64 µg/mL (≈ 154 µM) | 13.6 °C and 17.4 °C | 781 µM | > 64 µg/mL | 64 µg/mL (≈ 154 µM) | inhibition [3]: Dde; inhibition [9]: Dde; inhibition [11]: Dde; ΔTm [12]: 17.4 °C; inhibition [13]: Dde; inhibition [22]: Dde; ΔTm [23]: 12.5 °C
2 | C/C(=C\C(=O)OCCCCCCCCC(=O)O)C[C@@H]1OC[C@H](C[C@@H]2O[C@H]2[C@@H](C)[C@H](C)O)[C@@H](O)[C@H]1O [MUPIROCIN] | – | – | – | – | 32 µg/mL (≈ 63.9 µM) | 0.13 µg/mL (≈ 0.26 µM) | 32 µg/mL (≈ 63.9 µM) | – | – | – | – | 0.13 µg/mL (≈ 0.26 µM) | – | 0.13 µg/mL (≈ 0.26 µM) | – | – | 0.13 µg/mL (≈ 0.26 µM) | 8 µg/mL (≈ 16 µM) | Activity [26]: 1.2 log10CFU/ml
3 | O=C(C[C@@H]1CCCCN1)Cn1cnc2cc(Cl)c(F)cc2c1=O | 205 µM | 0.18 µM | 0.0303 µM | 0.0675 µM | 4 µg/mL (≈ 11.8 µM) | 2 µg/mL (≈ 5.92 µM) | 1 µg/mL (≈ 2.96 µM) | 10.2 °C | 0.076 µM | 0.691 µM | 376 µM | 1 µg/mL (≈ 2.96 µM) | 8.33 µM | 1 µg/mL (≈ 2.96 µM) | 20.4 °C | 276 µM | 4 µg/mL (≈ 11.8 µM) | 1 µg/mL (≈ 2.96 µM) | selectivity ratio [27]: 3600; MIC [28]: 8 µg/mL; Activity [29]: 1.6 log10CFU/ml; fold change (FC) [30]: 16; Ratio [31]: 8; Activity [32]: 2.1 log10CFU/ml; Activity [33]: Active; Activity [34]: Active; MIC [35]: 4 µg/mL; Ratio [36]: 16; fold change (FC) [37]: 15; MBC [38]: 8 µg/mL (≈ 23.7 µM)

Reference: ChEMBL document CHEMBL5150045, “Structure-Guided Design of Halofuginone Derivatives as ATP-Aided Inhibitors Against Bacterial Prolyl-tRNA Synthetase” (J Med Chem, 2022)
